# Legend:
# [1] = target: T1, human P2X2/3 receptor (Homo sapiens, UniProt P56373+Q9UBL9); test: P2X3/P2X2/3 FLIPR (Fluorometric Imaging Plate Reader) Assay, P2X2/3; type: cell-based; settings: CHO-K1 cells transfected with human P2X2/3; agonist α,β-meATP 5 μM; Table 1; read-out: P2X2/3 pKi (converted)
# T1 construct: expressed in transfected cells; host or cells: CHO-K1
# T1 sequence (Q9UBL9 1-471): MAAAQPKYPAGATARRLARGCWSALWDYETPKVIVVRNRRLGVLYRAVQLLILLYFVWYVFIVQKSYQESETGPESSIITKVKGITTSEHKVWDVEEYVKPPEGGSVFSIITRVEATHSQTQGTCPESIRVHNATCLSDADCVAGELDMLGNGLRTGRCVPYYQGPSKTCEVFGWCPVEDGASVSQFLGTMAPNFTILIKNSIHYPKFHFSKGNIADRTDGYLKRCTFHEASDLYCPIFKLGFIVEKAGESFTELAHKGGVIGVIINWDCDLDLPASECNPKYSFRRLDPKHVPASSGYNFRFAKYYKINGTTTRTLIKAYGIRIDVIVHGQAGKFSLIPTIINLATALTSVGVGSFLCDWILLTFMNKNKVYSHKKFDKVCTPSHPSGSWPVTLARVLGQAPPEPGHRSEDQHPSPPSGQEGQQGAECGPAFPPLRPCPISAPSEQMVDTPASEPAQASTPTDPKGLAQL
# T1 sequence (P56373 1-397): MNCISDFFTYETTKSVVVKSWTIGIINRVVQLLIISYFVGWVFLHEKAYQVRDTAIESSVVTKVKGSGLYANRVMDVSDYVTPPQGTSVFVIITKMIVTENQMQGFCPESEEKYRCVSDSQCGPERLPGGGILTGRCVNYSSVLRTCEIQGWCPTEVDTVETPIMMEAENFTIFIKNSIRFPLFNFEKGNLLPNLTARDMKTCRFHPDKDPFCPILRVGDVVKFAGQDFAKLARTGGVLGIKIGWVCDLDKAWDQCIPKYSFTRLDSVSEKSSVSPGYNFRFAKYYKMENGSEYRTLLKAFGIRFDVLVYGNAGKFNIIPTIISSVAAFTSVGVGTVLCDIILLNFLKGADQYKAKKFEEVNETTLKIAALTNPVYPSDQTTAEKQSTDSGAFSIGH
# Description: (§1) P2X3/P2X2/3 FLIPR (Fluorometric Imaging Plate Reader) Assay
# (§2) CHO-K1 cells were transfected with cloned rat P2X3 or human P2X2/3 receptor subunits and passaged in flasks. 18-24 hours before the FLIPR experiment, cells were released from their flasks, centrifuged, and resuspended in nutrient medium at 2.5×10^5 cells/ml. The cells were aliquoted into black-walled 96-well plates at a density of 50,000 cells/well and incubated overnight in 5% CO2 at 37° C. On the day of the experiment, cells were washed in FLIPR buffer (calcium- and magnesium-free Hank's balanced salt solution, 10 mM HEPES, 2 mM CaCl2, 2.5 mM probenecid; FB). Each well received 100 μl FB and 100 μl of the fluorescent dye Fluo-3 AM [2 μM final conc.]. After a 1 hour dye loading incubation at 37° C., the cells were washed 4 times with FB, and a final 75 μl/well FB was left in each well.
# (§3) Test compounds (dissolved in DMSO at 10 mM and serially diluted with FB) or vehicle were added to each well (25 μl of a 4× solution) and allowed to equilibrate for 20 minutes at room temperature. The plates were then placed in the FLIPR and a baseline fluorescence measurement (excitation at 488 nm and emission at 510-570 nm) was obtained for 10 seconds before a 100 μl/well agonist or vehicle addition. The agonist was a 2× solution of α,β-meATP producing a final concentration of 1 μM (P2X3) or 5 μM (P2X2/3). Fluorescence was measured for an additional 2 minutes at 1 second intervals after agonist addition. A final addition of ionomycin (5 μM, final concentration) was made to each well of the FLIPR test plate to establish cell viability and maximum fluorescence of dye-bound cytosolic calcium. Peak fluorescence in response to the addition of α,β-meATP (in the absence and presence of test compounds) was measured and inhibition curves generated using nonlinear regression. PPADS, a standard P2X antagonist, was used as a positive control.
# [2] = target: T2, rat P2X3 receptor (Rattus norvegicus, UniProt P49654); test: P2X3/P2X2/3 FLIPR (Fluorometric Imaging Plate Reader) Assay, P2X3; type: cell-based; settings: CHO-K1 cells transfected with rat P2X3; agonist α,β-meATP 1 μM; Table 1; read-out: P2X3 pKi (converted)
# T2 construct: expressed in transfected cells; host or cells: CHO-K1
# T2 sequence (P49654 1-397): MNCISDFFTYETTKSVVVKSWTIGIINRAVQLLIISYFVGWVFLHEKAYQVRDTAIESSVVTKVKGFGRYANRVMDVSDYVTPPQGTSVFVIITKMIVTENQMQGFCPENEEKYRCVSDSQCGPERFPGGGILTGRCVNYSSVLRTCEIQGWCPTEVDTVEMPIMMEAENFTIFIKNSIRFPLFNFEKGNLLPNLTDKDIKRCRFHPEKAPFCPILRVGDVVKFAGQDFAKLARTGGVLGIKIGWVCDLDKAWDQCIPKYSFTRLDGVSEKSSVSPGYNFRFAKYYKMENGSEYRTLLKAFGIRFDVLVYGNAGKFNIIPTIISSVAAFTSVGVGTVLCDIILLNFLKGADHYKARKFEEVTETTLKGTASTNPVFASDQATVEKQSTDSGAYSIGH
# Description: as §1, §2, §3
Ki [1],Ki [2],SMILES
295 nM,3.55 nM,"Cc1ccc(-c2cc(C(=O)NC(C)CO)cc(-n3ncnc3C(C)C)c2)cc1 (centres unmarked) [Compound 16, 5-(5-Isopropyl-[1,2,4]triazol-1-yl)-4′-methyl-biphenyl-3-carboxylic acid (2-hydroxy-1-methyl-ethyl)-amide]"
141 nM,2.88 nM,"Cc1ccc(-c2cc(C(=O)N[C@@H](C)CO)cc(-n3ncnc3C(C)C)c2)cc1 [Compound 17, 5-(5-Isopropyl-[1,2,4]triazol-1-yl)-4′-methyl-biphenyl-3-carboxylic acid ((S)-2-hydroxy-1-methyl-ethyl)-amide]"
10000 nM,977 nM,"Cc1ccc(-c2cc(C(=O)N[C@@H](C)CO)cc(-n3cnnc3C(C)C)c2)cc1 [Compound 21, 5-(3-Isopropyl-[1,2,4]triazol-4-yl)-4′-methyl-biphenyl-3-carboxylic acid ((S)-2-hydroxy-1-methyl-ethyl)-amide]"
10000 nM,155 nM,"Cc1ccc(-c2cc(C(=O)NC(C)CO)cc(-n3cnnc3C(C)C)c2)cc1 (centres unmarked) [Compound 26, 5-(3-Isopropyl-[1,2,4]triazol-4-yl)-4′-methyl-biphenyl-3-carboxylic acid (2-hydroxy-1-methyl-ethyl)-amide]"
10000 nM,64.6 nM,"Cc1ccc(-c2cc(C(=O)NC(C)CO)cc(-n3nc(C)nc3C(C)C)c2)cc1 (centres unmarked) [Compound 28, 5-(5-Isopropyl-3-methyl-[1,2,4]triazol-1-yl)-4′-methyl-biphenyl-3-carboxylic acid (2-hydroxy-1-methyl-ethyl)-amide]"
3630 nM,46.8 nM,"Cc1ccc(-c2cc(C(=O)N[C@@H](C)CO)cc(-n3nc(C)nc3C(C)C)c2)cc1 [Compound 29, 5-(5-Isopropyl-3-methyl-[1,2,4]triazol-1-yl)-4′-methyl-biphenyl-3-carboxylic acid ((S)-2-hydroxy-1-methyl-ethyl)-amide]"

# The next lines start with the molecule.
SMILES,Ki [1],Ki [2]
"Cc1ccc(-c2cc(C(=O)NC(C)c3cnccn3)cc(-n3ncnc3C(C)C)c2)cc1 (centres unmarked) [Compound 18, 5-(5-Isopropyl-[1,2,4]triazol-1-yl)-4′-methyl-biphenyl-3-carboxylic acid (1-pyrazin-2-yl-ethyl)-amide]",24 nM,3.09 nM
Cc1ccc(-c2cc(C(=O)NC(C)c3cnccn3)cc(-n3cnnc3C(C)C)c2)cc1 (centres unmarked) [Compound 19],1290 nM,5.89 nM
"COC[C@@H](C)NC(=O)c1cc(-c2ccc(C)cc2)cc(-n2cnnc2C(C)C)c1 [Compound 20, 5-(3-Isopropyl-[1,2,4]triazol-4-yl)-4′-methyl-biphenyl-3-carboxylic acid ((R)-2-methoxy-1-methyl-ethyl)-amide]",10000 nM,372 nM
"Cc1ccc(-c2cc(C(=O)NC(C)CO)cc(-n3nncc3C(C)C)c2)c(F)c1 (centres unmarked) [Compound 23, 2′-Fluoro-5-(5-isopropyl-[1,2,3]triazol-1-yl)-4′-methyl-biphenyl-3-carboxylic acid (2-hydroxy-1-methyl-ethyl)-amide]",355 nM,5.75 nM
"Cc1ccc(-c2cc(C(=O)N[C@@H](C)CO)cc(-n3nncc3C(C)C)c2)c(F)c1 [Compound 24, 2′-Fluoro-5-(5-isopropyl-[1,2,3]triazol-1-yl)-4′-methyl-biphenyl-3-carboxylic acid ((S)-2-hydroxy-1-methyl-ethyl)-amide]",324 nM,3.31 nM
"Cc1ccc(-c2cc(C(=O)NC(C)c3cnccn3)cc(-n3nncc3C(C)C)c2)c(F)c1 (centres unmarked) [Compound 25, 2′-Fluoro-5-(5-isopropyl-[1,2,3]triazol-1-yl)-4′-methyl-biphenyl-3-carboxylic acid (1-pyrazin-2-yl-ethyl)-amide]",72.4 nM,12 nM
"Cc1ccc(-c2cc(C(=O)NC(C)c3cnccn3)cc(-n3nc(C)nc3C(C)C)c2)cc1 (centres unmarked) [Compound 30, 5-(5-Isopropyl-3-methyl-[1,2,4]triazol-1-yl)-4′-methyl-biphenyl-3-carboxylic acid (1-pyrazin-2-yl-ethyl)-amide]",135 nM,4.57 nM

# Source: patent US8440708B2, “Triazole-substituted arylamides as P2X3 and P2X2/3 antagonists” (Roche Palo Alto LLC, priority 2007, dated 2013)
